Assay results published in US7385041B2, “Dual functioning excipient for metal chelate contrast agents” (Bracco International B.V., priority 1990, dated 2008).

Test system: Charles River CD-1 mice
Experiment: Intravenous acute tolerance in mice (LD50)
Details: intravenous (tail vein) at 0.02 mL/g, CD-1 mice, 14 days observation, physiologic pH
Protocol: The relative toxicities of free metal, free ligand, metal chelate contrast agent and excipient of the present invention were determined by injecting samples of each into the tail vein of Charles River CD-1 mice (18-23 g, 25-35 days) at 0.02 mL/g. The observation period was 14 days.

Q: `CC(O)CN1CCN(CC(=O)[O-])CCN(CC(=O)[O-])CCN(CC(=O)[O-])CC1.CC(O)CN1CCN(CC(=O)[O-])CCN(CC(=O)[O-])CCN(CC(=O)[O-])CC1.[Ca+2].[Ca+2].[Ca+2]` (stereo not shown) [Ca[Ca(HP-DO3A)]2, Calcium bis[1,4,7-tris(carboxymethyl)-10-(2′-hydroxy)propyl-1,4,7,10-tetraazacyclododecanato-calcium(II)]] was tested. Which LD50 did it give?
A: The LD50 was 1.3 mmol/kg.

Q: How did the LD50 turn out when `O=C([O-])CN1CCNCCN(CC(=O)[O-])CCN(CC(=O)[O-])CC1.[Gd+3]` [Gd(DO3A)] was run?
A: The LD50 was 5.7 mmol/kg.

Q: Which LD50 does the source give for `[Ca+2].[Cl-].[Cl-]` [CaCl2] here?
A: Its LD50 is 1.5 mmol/kg.

Q: With `CC(O)CN1CCN(CC(=O)O)CCN(CC(=O)O)CCN(CC(=O)O)CC1.[Gd+3]` (stereo not shown) [Gd(HP-DO3A), Gadolinium(III) 1,4,7-tris(carboxymethyl)-10-(2′-hydroxypropyl)-1,4,7,10-tetraazacyclododecane] as the compound, how does the LD50 read?
A: The LD50 was 10 mmol/kg.

Q: With `O=C([O-])CN1CCNCCN(CC(=O)[O-])CCN(CC(=O)[O-])CC1.O=C([O-])CN1CCNCCN(CC(=O)[O-])CCN(CC(=O)[O-])CC1.[Ca+2].[Ca+2].[Ca+2]` [Ca[Ca(DO3A)]2, Calcium bis[1,4,7,10-tetraazacyclododecane-1,4,7-triacetatocalcium(II)]] as the compound, how does the LD50 read?
A: The LD50 was 1.6 mmol/kg.

Q: With `[Gd+3].[OH-].[OH-].[OH-]` [Gd(OH)3] as the compound, how does the LD50 read?
A: The LD50 was 0.1 mmol/kg.

Q: For `O=C(O)CN1CCN(CC(=O)O)CCN(CC(=O)O)CCN(CC(=O)O)CC1` [DOTA, 1,4,7,10-tetraazacyclododecane-N,N′N″,N″′-tetraacetic acid], which LD50 is on record?
A: The LD50 was 0.18 mmol/kg.

Same assay, conditions: mouse, in vivo, iv

Q: For `O=C(O)CN1CCNCCN(CC(=O)O)CCN(CC(=O)O)CC1` [DO3A, 1,4,7,10-tetraazacyclododecane-1,4,7-triacetic acid], which LD50 is on record?
A: The LD50 was 0.12 mmol/kg.

Q: `CC(O)CN1CCN(CC(=O)O)CCN(CC(=O)O)CCN(CC(=O)O)CC1` (stereo not shown) [HP-DO3A, 1,4,7-tris-(carboxymethyl)-10-(2′-hydroxypropyl)-1,4,7,10-tetraazacyclododecane] was tested. Which LD50 did it give?
A: The LD50 was 0.11 mmol/kg.

Same assay, conditions: summary of Table 1 data, intravenous in mice

Q: `O=C([O-])CN1CCNCCN(CC(=O)[O-])CCN(CC(=O)[O-])CC1.[Gd+3]` [Gd(DO3A)] was tested. Which “Tolerance (in words)” value did it give?
A: Its value is “highly tolerated”.
